Assay results reported in patent publication US9539191B2, “Composition for cosmetic use suitable to produce a pigmentation effect on hair” (Giuliani S.P.A., priority 2013, dated 2017).

Experiments:
[1] = system: Hair follicles (HF) in anagen phase VI with normal pigmentation; assay: Hair pigmentation in organ-cultured human hair follicles (quantitative Masson-Fontana melanin stain); type: cell-based
Procedure: The skin of the normal human scalp was taken from a person who was submitted to routine facial lifting surgery, after obtaining their informed consent. All experiments were performed in compliance with the Helsinki principles, with the Ethics Committee approval.
N^1-methyl-spermidine in the invention or the carrier as such (control group) were administered once every time the culture medium was changed, namely every 48 hours. The control compound administered was spermidine at a concentration of 0.5 μM.
The Masson-Fontana stain was administered to ensure histochemical visibility of melanin in frozen sections. Melanin was stained as brown granules and the degree of pigmentation was assessed with the quantitative Masson-Fontana technique. (Ito N., Ito T., Kromminga A., Bettermann A., Takigawa M., Kees F., Straub R. H., and Paus R. (2005): Human hair follicles display a functional equivalent of the hypothalamic-pituitary-adrenal axis and synthesise cortisol. (FASEB J 19, 1332-4)
This method is a highly sensitive and reliable indicator of variations in melanin synthesis, as proven by assays of enzymatic activity, and the expression of standard tyrosinase. […]
The intensity of the stain was analysed in a defined reference region of the hair follicle's pigmentation unit using the software ImageJ (National Institute of Health).

Tyrosinase = assay: Enzymatic assay of tyrosinase (L-tyrosine substrate, absorbance 280 nm); type: biochemical; details: compound 5 mM; for Increment in enzymatic activity (%): % enzymatic activity - 100; for Enzymatic activity (%): compared to activity of the enzyme without active compounds (100%)
Procedure: The following compounds with formulae (II), (III), (IV) and (V) were tested as defined above, all in a concentration of 5 mM:
Tyrosinase is a membrane glycoprotein that is expressed in melanosomes, specialised organelles in the endocytic pathway through which the synthesis and assembly of melanin takes place. The synthesis of melanin from tyrosine takes place in pigment-producing cells, namely melanocytes. Melanin produced in melanosomes is transferred to keratinocytes through said processes. Melanin is a polymer that absorbs light within a broad spectrum of wavelengths, and protects keratinocytes from the harmful effects of UV radiations. A peroxidase is involved in the first phase of the reaction, which converts the amino acid into […] alanine or DOPA. The enzyme tyrosinase is involved in the subsequent phase of the biosynthesis pathway that produces dopaquinone. Melanin is synthesised starting from precursors of tyrosine and DOPA, through the enzyme tyrosinase, which presents both […] and oxidase functions. Tyrosine is converted into L-DOPA (dihydroxyphenylalanine) and, then, into dopaquinone, which is red, until the brown melanin polymer is obtained. In a first branch of the pathway dopaquinone is converted into black polymeric melanins, while the reaction with cysteine forms a series of polymers that are similar among them and are called red polymeric melanins.
REAGENT A (potassium phosphate buffer, 50 mM, pH 6.5, 25° C.):
REGENT B (L-tyrosine solution 1 mM):
REAGENT C (tyrosinase solution):
Prepare a solution A+B as described below:
10 mL of Reagent A (potassium phosphate buffer 50 mM)
10 mL of Reagent B (L-tyrosine 1 mM)
Vortex the solution and, if necessary, restore pH 6.5, at 25° C. with HCl 1M or NaOH.
Prepare the solutions with the various concentrations of the compounds to be tested, and preserve at 4° C. until use.
Defrost the tyrosinase solution and keep it on ice in the dark until use.
Mix, at ambient temperature, the solution of potassium phosphate buffer (50 mM, pH 6.5), the above solution A+B and the solutions that include the compounds of the formula (I) to be tested.
Use the following parameters:
Measuring mode: absorbance;
Execution settings: 700 seconds.
First read the enzymatic activity of tyrosinase when there is only L-tyrosine to verify the actual enzyme/mL units and have a basic reference to later assess the effects of the compound examined on enzyme activity:
1 replicates for the blank test (one blank test for each concentration to be tested);
2 replicates for the test (one test for each concentration to be tested).
Prepare the mixtures in separate cuvettes, as described below:
Test the examined compounds with formulae (II), (III), (IV) and (V), as specified below: […]
Calculating the Inhibition or Induction of Enzymatic Activity
[formula] df=dilution factor (30 because 0.1 mL/3 mL tot) 0.001=change of A280 nm/min per unit of L-tyrosine at pH 6.5, 25° C. in a 3 mL reaction mixture; 0.1=volume (mL) of enzyme used Unit/mg solid=unit/mL of enzyme: mg solid/mL of enzyme Unit/mg protein=unit/mL of enzyme: mg protein/mL of enzyme Definition of unit=increment of A280 nm/min equal to 0.001, at 25° C., pH 6.5 in a 3 mL reaction volume containing L-tyrosine.
The percentage of enzymatic activity was calculated for each tested compound, compared to the activity of the enzyme (100% enzymatic activity) failing the presence of active compounds.
The increment percentage of enzymatic activity was later calculated (% enzymatic activity−100).

| SMILES | absolute pigmentation intensity in hair follicles compared to spermidine (Spd) ([1]; 0.5 μM vs spermidine 0.5 μM, FIG. 1) | melanin produced / (absolute) intensity of pigmentation in hair follicles compared to carrier ([1]; 0.5 and 1.5 μM, administered every 48 hours, Masson-Fontana stain, FIGS. 1 and 2) | Increment in enzymatic activity (%) (Tyrosinase) | Enzymatic activity (%) (Tyrosinase) |
| --- | --- | --- | --- | --- |
| CNCCCCNCCCN [Methyl-spermidine, N-(3-aminopropyl)-N^1-methyl-1,4-butandiammine] | higher increase in absolute pigmentation intensity | increase in melanin produced | 5.16% | 105.16% |
| NCCCNCCCCNC1CCCCC1 [Cyclohexyl-spermidine, N-(3-aminopropyl)-N^1-cyclohexyl-1,4-butandiammine] | – | – | 35.31% | 135.31% |
| CCNCCCCNCCCN [Ethyl-spermidine, N-(3-aminopropyl)-N^1-ethyl-1,4-butandiammine] | – | – | 21.50% | 121.50% |
| CCCNCCCCNCCCN [Propyl-spermidine, N-(3-aminopropyl)-N^1-propyl-1,4-butandiammine] | – | – | 31.29% | 131.29% |
